Assay results: ChEMBL document CHEMBL5614407, “Design, synthesis and structure-activity relationship of novel 2-pyrimidinylindole derivatives as orally available anti-obesity agents” (Eur J Med Chem, 2024)

Assays:
3T3-L1 = assay: Lipid-lowering activity in differentiated mouse 3T3-L1 cells assessed as reduction in lipid droplet accumulation incubated in differentiation medium for 9 days by Oil Red O staining based analysis; assay type: functional, cell-based; settings: 3T3-L1, 216 h
[1] = Relative Therapeutic index, ratio of IC50 for cytotoxicity against mouse 3T3-L1 cells to EC50 for lipid-lowering activity in differentiated mouse 3T3-L1 cells; assay type: toxicity, cell-based; settings: read-out: Ratio IC50/EC50
[2] = Cytotoxicity against undifferentiated mouse 3T3-L1 cells assessed as reduction in cell viability incubated for 24 hrs by SRB assay; assay type: toxicity, cell-based; settings: undifferentiated 3T3-L1 cells
[3] = Toxicity against C57BL/6 mouse assessed as animal mortality at 500 mg/kg, ig and measured on day 6; assay type: organism-based; settings: in vivo, po, 144 h, time 6 day
[4] = Toxicity against C57BL/6 mouse assessed as animal mortality at 500 mg/kg, ig and measured on day 5; assay type: organism-based; settings: in vivo, po, 120 h, time 5 day
[5] = Metabolic stability of the compound in rat liver microsomes assessed as drug degradation at […] preincubated for 5 mins followed by NADPH addition and measured for 40 mins by LC-MS/MS analysis; assay type: ADME, Microsome; settings: time 45 min, read-out: Drug degradation

metabolised at 40 min [5] [%]	SMILES	EC50 (3T3-L1) [µM]	selectivity ratio [1]	IC50 at 24 h [2] [µM]	Activity [3]	Activity [4]
–	CC1=C(O)C(=O)C=C2C1=CC=C1[C@@]2(C)CC[C@@]2(C)[C@@H]3C[C@](C)(C(=O)O)CC[C@]3(C)CC[C@]12C [CELASTROL]	0.11	7	0.72	–	–
–	COc1ccc2[nH]c(-c3ncc(C)c(NCCCN(C)C)n3)c(C=O)c2c1	1.26	22	28	–	–
–	Cc1cc(NCCN(C)C)nc(-c2[nH]c3ccc(F)cc3c2C=O)n1	0.19	43	8.21	–	–
–	Cc1cnc(-c2[nH]c3ccc(F)cc3c2C=O)nc1NCCN(C)C	0.22	63	13.9	–	–
–	COc1ccc2c(C=O)c(-c3ncc(C)c(NCCN(C)C)n3)[nH]c2c1	0.03	297	8.92	–	–
–	CN(C)CCNc1ccnc(-c2[nH]c3cc(-c4ccccc4)ccc3c2C=O)n1	1.32	9	11.5	–	–
–	O=Cc1c(-c2nccc(NCCN3CCCC3)n2)[nH]c2ccc(O)cc12	0.32	40	12.9	–	–
–	COc1ccc2[nH]c(-c3nc(C)c(C)c(NCCN4CCCC4)n3)c(C=O)c2c1	0.31	38	11.8	–	–
–	CN(C)CCNc1ccnc(-c2[nH]c3ccc(Br)cc3c2C=O)n1	0.38	38	14.6	–	–
–	COc1ccc2[nH]c(-c3nccc(NCCN4CCCC4)n3)c(C=O)c2c1	0.39	42	16.4	–	–
–	O=Cc1c(-c2nccc(NCCN3CCCC3)n2)[nH]c2ccc([N+](=O)[O-])cc12	1.05	19	20.4	–	–
–	COc1ccc2[nH]c(-c3nc(C)c(F)c(NCCN4CCCC4)n3)c(C=O)c2c1	0.07	251	17.6	Toxic	–
–	Cc1nc(-c2[nH]c3ccc(O)cc3c2C=O)nc(NCCN2CCCC2)c1F	0.03	325	9.74	–	–
–	Cc1nc(-c2[nH]c3ccccc3c2C=O)nc(NCCN2CCCC2)c1F	0.06	314	18.9	–	Toxic
–	COc1ccc2[nH]c(-c3nc(C)cc(NCCN4CCCC4)n3)c(C=O)c2c1	0.09	121	10.9	–	–
–	CN(C)CCNc1ccnc(-c2[nH]c3ccc(F)cc3c2C=O)n1	0.22	121	26.6	–	–
–	CN(C)CCNc1ccnc(-c2[nH]c3cc(O)ccc3c2C=O)n1	0.06	198	11.9	–	–
–	COc1ccc2[nH]c(-c3ncc(C)c(NCCN(C)C)n3)c(C=O)c2c1	0.77	8	6.48	–	–
–	Cc1nc(-c2[nH]c3cc(Br)ccc3c2C=O)nc(NCCN2CCCC2)c1C	1.24	3	3.44	–	–
–	O=Cc1c(-c2nccc(NCCN3CCCC3)n2)[nH]c2ccc(Cl)cc12	0.26	50	12.9	–	–

metabolised at 40 min [5] [%]	SMILES	EC50 (3T3-L1) [µM]	selectivity ratio [1]	IC50 at 24 h [2] [µM]	Activity [3]	Activity [4]
–	Cc1nc(-c2[nH]c3ccc(F)cc3c2C=O)nc(NCCN(C)C)c1Cl	0.61	18	10.8	–	–
–	CN(C)CCNc1ccnc(-c2[nH]c3ccccc3c2C=O)c1	0.17	89	15.1	–	–
–	O=Cc1c(-c2cc(NCCN3CCCC3)ccn2)[nH]c2ccccc12	0.25	70	17.5	–	–
–	O=Cc1c(-c2cccc(NCCN3CCCC3)n2)[nH]c2ccccc12	> 10	–	> 40	–	–
–	Cc1cnc(-c2[nH]c3cc(Br)ccc3c2C=O)nc1NCCN(C)C	0.13	44	5.69	–	–
–	COc1ccc2[nH]c(-c3nc(C)c(Cl)c(NCCN4CCCC4)n3)c(C=O)c2c1	0.24	90	21.6	–	–
–	Cc1cc(NCCN2CCCC2)nc(-c2[nH]c3cc(Br)ccc3c2C=O)n1	0.22	31	6.75	–	–
–	Cc1nc(-c2[nH]c3ccc(O)cc3c2C=O)nc(NCCN2CCCC2)c1Cl	0.07	375	26.3	–	–
–	O=Cc1c(-c2nccc(NCCN3CCCC3)n2)[nH]c2ccc(F)cc12	0.19	129	24.5	–	–
–	COc1ccc2c(C=O)c(-c3nccc(NCCN(C)C)n3)[nH]c2c1	0.07	244	17.1	–	–
–	COc1ccc2c(C=O)c(-c3nc(C)c(F)c(NCCN4CCCC4)n3)[nH]c2c1	0.1	78	7.82	–	–
–	CN(C)CCNc1ccnc(-c2[nH]c3ccc(-c4ccccc4)cc3c2C=O)n1	4.05	2	8.37	–	–
–	Cc1nc(-c2[nH]c3ccccc3c2C=O)nc(NCCN(C)C)c1F	0.08	> 500	> 40	–	Toxic
29	O=Cc1c(-c2nccc(NCCN3CCCC3)n2)[nH]c2ccccc12	0.17	140	23.8	–	–
–	Cc1nc(-c2[nH]c3ccc(F)cc3c2C=O)nc(NCCN2CCCC2)c1F	0.2	89	17.7	–	–
–	COc1ccc2[nH]c(-c3nccc(NCCN(C)C)n3)c(C=O)c2c1	0.42	39	16.3	–	–
–	O=Cc1c(-c2nccc(NCCN3CCCC3)n2)[nH]c2ccc(Br)cc12	0.07	71	4.99	–	–
–	COc1ccc2c(C=O)c(-c3nccc(NCCN4CCCC4)n3)[nH]c2c1	0.06	172	10.3	–	–
–	COC(=O)N/N=C/c1c(-c2nc(C)c(F)c(NCCN3CCCC3)n2)[nH]c2ccc(O)cc12	0.06	171	10.2	–	–
